Assay [1] concerns Male Sprague-Dawley rat hearts. Conditions: 50 μM for 10 min prior to ischemia.
Description: Male Sprague-Dawley rat hearts were retrograde (Langendorff) perfused with oxygenated Krebs Henseleit (KH) buffer in constant flow mode (12 mL/min/gram wet weight). Hearts were not electrically stimulated, and beat spontaneously at approximately 280 bpm. Left-ventricular pressure (LVP) was measured by a balloon inserted in the left ventricle, linked to a pressure transducer with digital recording at 500 Hz. […] Following an equilibration period of approximately 25 mm., global normothermic ischemia was imposed for 25 mm., followed by reperfusion for 30 mm as indicated by the arrows on the traces. For mNAC treatment, the drug was dissolved in KH buffer and infused via a port just above the aortic perfusion cannula, at a final concentration of 50 μM, for 10 min. prior to the onset of ischemia.
The ability of mitochondrially targeted N-acetylcysteine (mNAC) to improve post-ischemic recovery in rat heart was assessed. Male Sprague-Dawley rat hearts were retrograde (Langendorff) perfused with oxygenated Krebs Henseleit (KH) buffer in constant flow mode (12 mL/min/gram wet weight). Hearts were not electrically stimulated, and beat spontaneously at approximately 280 beats per minute. Left-ventricular pressure (LVP) was measured by a balloon inserted in the left ventricle, linked to a pressure transducer with digital recording at 500 Hz. […]
Assay [2] deals with Rat heart mitochondria. Description: Mitochondrial membrane potential by TPP+ sensitive electrode under rotenone/t-BuOOH oxidative stress. Format: biochemical. Particulars: pretreatment 5 mM at 4° C. for 30 minutes; 5 μM rotenone and 100 μM t-BuOOH; TPP+ signal.
Description: Mitochondrial membrane potential was measured by a TPP+ (tetraphenyl phosphonium) sensitive electrode. Rat heart mitochondria (1 mg protein/100 μl) were transferred to a beaker (at the first arrow) containing 0.9 ml of 150 mM KCl, 5 mM Hepes, 6 μM TPP+ and 5 mM succinate buffer. […] At the second arrow, mitochondria were subjected to oxidative stress by adding 5 μM rotenone (Complex I inhibitor) and 100 μM tert-butylhydroperoxide (t-BuOOH) to the buffer.
Assay [3] deals with cultured neonatal rat ventricular myocytes. Description: H2O2-induced depolarization of mitochondrial membrane potential (TMRM fluorescence) in myocytes. It counts as cell-based. Conditions: for onset of H2O2-induced depolarization and loss of TMRM fluorescence: pretreatment 50 or 100 μM for 30 minutes.
Description: TMRM is a lipophilic cation that partitions selectively into the negatively charged mitochondria Neonatal cultured myocytes (6 days in culture) were loaded with 10 nM TMRM for 60 minutes at 37° C. The myocytes were pretreated with either 50 or 100 μM Mito GSH or 100 μM non-targeted GSH for 30 minutes and then washed to remove the antioxidants from the solution in which myocytes were suspended. As a control, myocytes were not pretreated with any drug. TMRM was excited at 555 nm and fluorescence emission was detected at 590 nm. Fluorescence images were taken every 2 minutes. At the arrow, myocytes were subjected to oxidative stress by adding 50 μM H2O2. Plots were normalized to baseline, and are shown as F/Fo, where F is the emitted fluorescence at any given time and Fo is the baseline fluorescence before addition of H2O2. […] The traces were drawn from the mean values of 7-10 experiments.
TMRM was used as an indicator of mitochondrial membrane potential. The myocytes were pretreated with 50 μM Mito GSH for 30 minutes and then washed to remove the antioxidant from the solution in which myocytes were suspended. In control, myocytes were not pretreated with any drug. TMRM was excited at 555 nm and fluorescence emission was detected at 590 nm. Fluorescence images were taken every 2 minutes to avoid photobleaching and phototoxicity. Myocytes were subjected to oxidative stress by adding 50 μM H2O2.
The subject of assay [4] is spinal cord neurons. Description: Oxidative stress-induced apoptosis (condensed and fragmented nuclei, Hoechst staining). Format: cell-based. From the text:
FIG. 3B is a control for FIG. 3A. FIG. 3C is a bar diagram summary of the percent of neurons with condensed fragmented nuclei after H2O2 treatment. The concentrations of H2O2 used are shown on the x-axis.
Central to the proposed therapeutic intervention is the belief that SCN undergo apoptosis and possibly necrosis under oxidative stress. […] Image pairs, obtained from H2O2-treated (FIG. 3A) and non-treated (FIG. 3B) SCN, are shown in both phase contrast and after Hoechst nuclear staining. Many of the neurons in FIG. 3A show condensed and fragmented nuclei (arrows) indicative of apoptotic cells. In contrast, control neurons in FIG. 3B show predominantly diffuse nuclear staining (arrows). […] This percentage increased to […] for 500 μM H2O2. […] These changes were concentration-dependent and increased by mtGSH depletion. […] In contrast, immunoreactivity to cytochrome C oxidase (COX), a marker in the inner mitochondrial membrane remains independent of the mitochondrial insults by H2O2 (FIG. 3E). The differential staining between Cyt C and COX affords a secondary method to assess whether a given neuron has undergone mitochondrial permeability transition (MPT).

Assay [5] concerns Rat heart mitochondria. The assay is described as follows: Mitochondrial membrane potential by safranine fluorescence under rotenone/t-BuOOH oxidative stress. It counts as biochemical. Particulars: pretreatment 5 mM for 30 minutes; 5 μM rotenone and 100 μM t-BuOOH.
Description: Mitochondrial membrane potential was measured by safranine. Safranine is a positively charged dye that accumulates in mitochondria on establishment of an electrical potential across the mitochondrial inner membrane. However, its fluorescence is quenched by its accumulation in mitochondria in response to mitochondrial membrane potential. Rat heart mitochondria (0.2 mg protein/200 μl) were transferred to a well containing 0.3 ml of 150 mM KCl, 5 mM Hepes, 15 μM safranine, 5 mM succinate buffer, 5 μM rotenone and 100 μM t-BuOOH. The mitochondria were placed in a multiplate reader. Fluorescence measurements were made with excitation and emission wavelengths of 485 and 585 nm respectively. Rotenone and t-BuOOH induced mitochondrial membrane potential resulting in a release of intramitochondrial safranine indicated by an increase in fluorescence signal.
Assay [6] concerns brain striatal neurons. Conditions: pretreatment 100 μM; 100 μM NMDA; DCF fluorescence.
Description: Intracellular reactive oxygen species (ROS) were measured by using the redox-sensitive dye, dichlorohydrofluorescein (H2DCFDA). […] Cultured striatal neurons (10 days in culture) were loaded with 50 nM H2DCFDA for 25 min. The neurons were excited at 488 nm and the image was acquired at 515 nm wavelength. ROS production was induced by treating the neurons with 100 μM NMDA. An increase in DCFDA fluorescence by NMDA treatment reflected an increased production of ROS or oxidative stress. […] Plots were normalized to baseline, and are shown as F/Fo, where F is the emitted fluorescence at any given time and Fo is the baseline fluorescence before addition of NMDA. […] The traces were drawn from the mean values of 3 experiments.

The record followed here is patent publication US7585846B2, “Compounds for delivering amino acids or peptides with antioxidant activity into mitochondria and use thereof” (University of Rochester, priority 2003, dated 2009).

For `CC(=O)N[C@@H](CS)C(=O)OCC[N+](C)(C)C` [mNAC, N-acetyl-L-cysteine choline ester], in assay [1], the “onset of ischemic contracture” value is reported as “appeared to delay the onset of ischemic contracture”. The “overall recovery of LV developed pressure (systolic minus diastolic)” value in assay [1] (25 min global ischemia, 30 min reperfusion, control 4.1%) is given as 15.7%. Besides, in assay [2], the “oxidative stress-induced depolarization of mitochondrial membrane potential” value (“oxidative stress-induced depolarization” below) is listed as “prevented the oxidative stress-induced depolarization significantly”. For the same molecule, the “onset of H2O2-induced depolarization and loss of TMRM fluorescence” value in assay [3] (50 μM H2O2) was “delayed onset of H2O2-induced depolarization and loss of fluorescence”.
As to `N[C@@H](CCC(=O)N[C@@H](CS)C(=O)NCC(=O)O)C(=O)O` [GSH, glutathione, reference compound], the “time for onset of H2O2-induced depolarization (versus control)” value in assay [3] (pretreatment 100 μM) was “did not significantly increase the time for onset of H2O2-induced depolarization”.
For `C=CC(O)CC(=O)O` (stereo not shown) [3-HP, 3-hydroxy-4-pentenoate], the “cells with condensed and fragmented nuclei” value in assay [4] (mtGSH depletion by 3-HP prior to 250 μM H2O2 treatment) is 70%.
Turning to `C[N+](C)(C)CCOC(=O)[C@@H](N)CS.[Cl-]` [cysteine choline ester, [2-(2-Amino-3-mercapto-L-propionyloxy)-ethyl]-trimethyl-ammonium chloride], the “oxidative stress-induced depolarization” value in assay [2] is on record as “prevented the oxidative stress-induced depolarization significantly”.
For the molecule `OO` [H2O2], the “neurons with condensed and fragmented nuclei” value in assay [4] (250 μM H2O2) is recorded as about 42%.
Turning to `CC(=O)N[C@@H](CSC(C)=O)C(=O)OCC[N+](C)(C)C` [N,S-acetyl cysteine choline ester, S,N-acetyl-L-cysteine choline ester], the “release of intramitochondrial safranine (depolarization of mitochondrial membrane potential)” value in assay [5] is on record as “diminished the release of intramitochondrial safaranine”.
Turning to `C[N+](C)(C)CCOC(=O)CNC(=O)[C@H](CS)NC(=O)CC[C@H](N)C(=O)O.[Cl-]` [Mito GSH, Glutathione choline ester chloride], the “NMDA-induced increase in ROS production” value in assay [6] was “prevented NMDA-induced increase in ROS production”. The “oxidative stress-induced depolarization” value in assay [2] is “prevented the oxidative stress-induced depolarization significantly”. The “time for onset of H2O2-induced depolarization (versus control)” value in assay [3] (pretreatment 50 μM) and in assay [3] (pretreatment 100 μM) was “significantly enhanced the time for onset of H2O2-induced depolarization” each time. The “time to which TMRM fluorescence persisted after H2O2 treatment” value in assay [3] (pretreatment 50 μM for 30 minutes, 50 μM H2O2, control invisible at 32 minutes) worked out at 50 min. The “Time for onset of H2O2-induced depolarization” value in assay [3] (pretreatment 100 μM, control 25±3.2 min) was determined as 53 ± 3.6 min. In addition, in assay [3] (50 μM H2O2), the “onset of H2O2-induced depolarization and loss of TMRM fluorescence” value was “delayed onset of H2O2-induced depolarization and loss of TMRM fluorescence”.
